Source: the NIST ThermoML archive (doi:10.1021/acs.jced.7b00396)

Settings: 5100 kPa, Liquid, Capillary tube (Ostwald / Ubbelohde) method

CCCCCCCC [octane]
Settings	viscosity [mPa·s]
303.2 K	0.5014
353.1 K	0.3078
403.2 K	0.207
453.1 K	0.1465
503 K	0.1049
553.4 K	0.0692
